PubChem BioAssay (NCI)
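Each compound was tested at five concentrations against cells in 96-well plates for 48 hours. At the TGI there is no net growth.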

Legend:
Assay in all cases: growth of human tumour cells (NCI), 48 h
[1] = system: 786-0 renal
[2] = system: A549 NSCLC
[3] = system: ACHN renal
[4] = system: CAKI-1 renal
[5] = system: CCRF-CEM leukemia
[6] = system: COLO 205 colon
[7] = system: DLD-1 colon
[8] = system: DMS 114 small cell lung
[9] = system: DMS 273 small cell lung
[10] = system: HCT-116 colon
[11] = system: HCT-15 colon
[12] = system: HL-60(TB) leukemia
[13] = system: HOP-18 NSCLC
[14] = system: HOP-62 NSCLC
[15] = system: HOP-92 NSCLC
[16] = system: HT29 colon
[17] = system: IGROV1 ovarian
[18] = system: K-562 leukemia
[19] = system: KM12 colon
[20] = system: KM20L2 colon
[21] = system: LOX IMVI melanoma
[22] = system: LXFL 529 NSCLC
[23] = system: M14 melanoma
[24] = system: M19-MEL melanoma
[25] = system: MALME-3M melanoma
[26] = system: MOLT-4 leukemia
[27] = system: NCI-H226 lung
[28] = system: NCI-H23 lung
[29] = system: NCI-H460 lung
[30] = system: NCI-H522 lung
[31] = system: OVCAR-3 ovarian
[32] = system: OVCAR-4 ovarian
[33] = system: OVCAR-5 ovarian
[34] = system: OVCAR-8 ovarian
[35] = system: RPMI-8226 leukemia
[36] = system: RXF 393 renal
[37] = system: SF-268 CNS
[38] = system: SF-295 CNS
[39] = system: SF-539 CNS
[40] = system: SK-MEL-2 melanoma
[41] = system: SK-MEL-28 melanoma
[42] = system: SK-MEL-5 melanoma
[43] = system: SK-OV-3 ovarian
[44] = system: SN12C renal
[45] = system: SNB-19 CNS
[46] = system: SNB-75 CNS
[47] = system: SR leukemia
[48] = system: SW-620 colon
[49] = system: TK-10 renal
[50] = system: U251 CNS
[51] = system: UACC-257 melanoma
[52] = system: UACC-62 melanoma
[53] = system: UO-31 renal
[54] = system: XF 498 CNS
[55] = system: A498 renal
[56] = system: EKVX NSCLC
[57] = system: HCC-2998 colon
[58] = system: SNB-78 CNS

With CC(C)C1=CC23CCC4C(C)(C(=O)O)CCCC4(C)C2CC1C1C(=O)N(c2ccccc2)C(=O)C13 (stereo not given) the TGI [1] was > 100 µM, the TGI [2] was > 100 µM and the TGI [3] was > 100 µM. For the same compound, the TGI [4] was > 100 µM, the TGI [5] was > 100 µM and the TGI [6] was 52.3 µM. For the same compound, the TGI [7] was > 100 µM, the TGI [8] was > 100 µM and the TGI [9] was > 100 µM. The TGI [10] was > 100 µM, the TGI [11] was > 100 µM and the TGI [12] was > 100 µM. The TGI [13] was > 100 µM, the TGI [14] was > 100 µM and the TGI [15] was 97.4 µM. For the same compound, the TGI [16] was > 100 µM, the TGI [17] was > 100 µM and the TGI [18] was > 100 µM. For the same compound, the TGI [19] was > 100 µM, the TGI [20] was > 100 µM and the TGI [21] was > 100 µM. The TGI [22] was > 100 µM, the TGI [23] was > 100 µM and the TGI [24] was > 100 µM. For the same compound, the TGI [25] was > 100 µM, the TGI [26] was > 100 µM and the TGI [27] was 60.3 µM. The TGI [28] was > 100 µM, the TGI [29] was > 100 µM and the TGI [30] was > 100 µM. For the same compound, the TGI [31] was > 100 µM, the TGI [32] was > 100 µM and the TGI [33] was > 100 µM. The TGI [34] was > 100 µM, the TGI [35] was > 100 µM and the TGI [36] was 76.1 µM. The TGI [37] was > 100 µM, the TGI [38] was > 100 µM and the TGI [39] was > 100 µM. The TGI [40] was 73.3 µM, the TGI [41] was > 100 µM and the TGI [42] was > 100 µM. For the same compound, the TGI [43] was > 100 µM, the TGI [44] was > 100 µM and the TGI [45] was > 100 µM. The TGI [46] was > 100 µM, the TGI [47] was > 100 µM and the TGI [48] was > 100 µM. For the same compound, the TGI [49] was > 100 µM, the TGI [50] was > 100 µM and the TGI [51] was 84.2 µM. The TGI [52] was > 100 µM, the TGI [53] was > 100 µM and the TGI [54] was > 100 µM.

For O=[N+]([O-])CCc1cccc([N+](=O)[O-])c1, the TGI [1] was > 100 µM, the TGI [55] was > 100 µM and the TGI [2] was > 100 µM. For the same compound, the TGI [3] was > 100 µM, the TGI [4] was > 100 µM and the TGI [5] was > 100 µM. For the same compound, the TGI [6] was > 100 µM, the TGI [7] was > 100 µM and the TGI [8] was > 100 µM. The TGI [9] was > 100 µM, the TGI [56] was > 100 µM and the TGI [57] was > 100 µM. For the same compound, the TGI [10] was > 100 µM, the TGI [11] was > 100 µM and the TGI [12] was > 100 µM. The TGI [13] was > 100 µM, the TGI [14] was > 100 µM and the TGI [15] was > 100 µM. The TGI [16] was > 100 µM, the TGI [17] was > 100 µM and the TGI [18] was > 100 µM. For the same compound, the TGI [19] was > 100 µM, the TGI [20] was > 100 µM and the TGI [21] was > 100 µM. For the same compound, the TGI [22] was > 100 µM, the TGI [23] was > 100 µM and the TGI [24] was > 100 µM. The TGI [25] was > 100 µM, the TGI [26] was > 100 µM and the TGI [27] was > 100 µM. The TGI [28] was > 100 µM, the TGI [29] was > 100 µM and the TGI [30] was > 100 µM. The TGI [31] was > 100 µM, the TGI [32] was > 100 µM and the TGI [33] was > 100 µM. For the same compound, the TGI [34] was > 100 µM, the TGI [35] was > 100 µM and the TGI [36] was > 100 µM. For the same compound, the TGI [37] was > 100 µM, the TGI [38] was > 100 µM and the TGI [39] was > 100 µM. The TGI [40] was > 100 µM, the TGI [41] was > 100 µM and the TGI [42] was > 100 µM. For the same compound, the TGI [44] was > 100 µM, the TGI [45] was > 100 µM and the TGI [46] was > 100 µM. For the same compound, the TGI [58] was > 100 µM, the TGI [47] was > 100 µM and the TGI [48] was 22.7 µM. For the same compound, the TGI [49] was > 100 µM, the TGI [50] was > 100 µM and the TGI [51] was > 100 µM. For the same compound, the TGI [52] was > 100 µM and the TGI [53] was > 100 µM.
